Measured values published in publication PMC8327344, “Regulation of a pentameric ligand-gated ion channel by a semiconserved cationic lipid-binding site” (The Journal of Biological Chemistry, 2021).

Assays:
ELIC W206A = molecular target: T1, ELIC W206A (Dickeya chrysanthemi, UniProt P0C7B7, INS163G/W205A); experiment: FlexStation membrane potential dye assay, GABA-elicited responses; assay type: cell-based, D. didantii; conditions: HEK293 cells, up to 100 mM GABA
T1 construct: expressed in transfected cells; host or cells: HEK293
Protocol: (§1) These methods were similar to those previously described ([55]). Briefly, ELIC cDNA was transfected into HEK293 cells, and these were then grown for 2 to 3 days in a 96-well plate. Then blue fluorescent membrane potential dye (Molecular Devices Ltd) diluted in Flex buffer (10 mM HEPES, 115 mM NaCl, 1 mM KCl, 1 mM CaCl2, 1 mM MgCl2, 10 mM glucose, pH 7.4) was added to each well. After incubation at 37 °C for 30 min, plates were placed in a FlexStation (Molecular Devices Ltd) and fluorescence measured every 2 s for 120 s. […] Concentration–response data were fitted to the four-parameter logistic equation, F = Fmin + (Fmax − Fmin)/(1 + 10^log(EC50-[A])∗^nH), where [A] is the concentration of agonist, nH is the Hill coefficient, and Fmax and Fmin are the maximal and minimal fluorescence levels for each dataset, using Prism software (GraphPad). WT and mutant responses were compared using an ANOVA test followed by Dunnett’s multiple comparison test.

ELIC W206F = molecular target: T2, ELIC W206F (Dickeya chrysanthemi, UniProt P0C7B7, INS163G/W205F); experiment: as above; assay type: cell-based, D. didantii; conditions: HEK293 cells, n = 4
T2 construct: expressed in transfected cells; host or cells: HEK293
Protocol: as §1

ELIC W206Y = experiment: as above; assay type: cell-based, D. didantii; conditions: HEK293 cells
Protocol: as §1

wild-type (WT) ELIC = experiment: as above; assay type: cell-based, D. didantii; conditions: HEK293 cells transfected with WT ELIC
Protocol: as §1

[1] = tested on: ELIC with fluorinated Trp at W206; experiment: Two-electrode voltage clamp of oocytes, noncanonical fluorinated Trp (FW, F2W, F3W) at position 206; assay type: cell-based, D. didantii; conditions: F3W at position 206, compared with WT
Protocol: Site-directed mutagenesis was performed using the QuikChange strategy (Stratagene) using ELIC in pGEM-HE. Mutations were confirmed by sequencing. For noncanonical amino acid mutants, the site of interest was mutated to the TAG stop codon. Plasmids were linearized and receptor mRNA prepared by in vitro runoff transcription using the Ambion T7 mMessage mMachine kit. Noncanonical amino acids ligated to tRNA were prepared as previously described ([56]).
Stage V-VI oocytes of Xenopus laevis were harvested and injected with mRNAs as described previously. For experiments with WT channels and conventional mutants, each cell received a single injection of 10 to 25 ng of receptor mRNA approximately 24 h before recording. For nonsense suppression experiments, each cell was injected with 50 to 100 ng each of receptor mRNA and appropriate tRNA approximately 48 h before recording. Injection volumes for each injection session were 50 to 100 nl per cell.
Two-electrode voltage clamping of Xenopus oocytes was performed using an OpusXpress system (Axon Instruments, Inc). All experiments were performed at 22 to 25 °C. […] The holding potential was −60 mV unless otherwise specified. Concentration–response curves and parameters were obtained using Prism software (GraphPad, PRISM).

[2] = tested on: α1β2 εF260E mutant GABAAR; experiment: Two electrode voltage clamp recordings from Xenopus oocytes; assay type: cell-based, human; conditions: ε F260E compared with WT
Protocol: Mutations were engineered with a QuikChange strategy and confirmed by sequencing. For functional expression of GABAAR containing an ε subunit, the mRNAs encoding for the human α1 (NP_000797.2), β2 (NP_068711.1) and ε subunits were mixed in a 1:1:0.1 ratio in nuclease-free distilled water at a concentration of 0.4 μg/μl (n.b. the definitive stoichiometry of the expressed receptors was not determined). […] Injection of 2 ng of mRNA per oocyte was done using the automated injection system Roboinject (Multi Channel Systems). Oocytes were incubated at 18 °C for 2 to 5 days prior to conducting the electrophysiological recordings using the two electrode automated voltage clamp system (HiClamp apparatus, Multi Channel Systems). […] Data acquired with the HiClamp were analyzed using the manufacturer’s software (Multi Channel Systems). Concentration–activation curves were fitted with the empirical Hill equation. Data are presented as the mean ± standard deviation (SD). Statistical comparison between WT and mutants was done with an unpaired, two-tailed t test with Welch’s correction for unequal sample size and variance.

NCCCC(=O)O [GABA]
GABA-elicited response (ELIC W206A): no response
EC50 (ELIC W206F): 2000 µM
pEC50 (ELIC W206F): 2.694 ± 0.08
maximal response (ELIC W206Y): ~60 % of WT
Hill coefficient (wild-type (WT) ELIC): 2.2 ± 1.4
change of EC50-values [1]: increased EC50-values
decrease of apparent GABA affinity [2]: threefold
